This experiment deals with T1, KpsC-NEc (E. coli KpsC^2-323) (Escherichia coli, UniProt A0A0H2Z2W8).
T1 construct: N-terminal GT module, residues 2-323, His6-tag kept, expressed in E. coli BL21(DE3)
The experiment can be described thus: LC-MS of intact protein. In kind it is biochemical. Conditions: covalent; Kdo on Asp160; CMP-Kdo made in situ by KdsB; no acceptor.

T1 sequence (A0A0H2Z2W8 entry or part of it): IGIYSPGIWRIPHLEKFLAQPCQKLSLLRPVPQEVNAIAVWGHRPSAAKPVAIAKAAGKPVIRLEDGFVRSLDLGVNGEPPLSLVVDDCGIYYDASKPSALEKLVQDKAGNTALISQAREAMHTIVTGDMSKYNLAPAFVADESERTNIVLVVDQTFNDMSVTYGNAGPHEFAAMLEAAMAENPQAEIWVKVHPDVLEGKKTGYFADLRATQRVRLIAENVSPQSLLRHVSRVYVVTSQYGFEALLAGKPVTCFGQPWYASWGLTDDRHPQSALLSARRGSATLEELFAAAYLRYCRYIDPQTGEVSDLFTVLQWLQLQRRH

Consider `Nc1ccn([C@@H]2O[C@H](COP(=O)(O)O[C@@]3(C(=O)O)C[C@@H](O)[C@@H](O)[C@@H]([C@H](O)CO)O3)[C@@H](O)[C@H]2O)c(=O)n1` [CMP-Kdo], for which the “Kdo adduct mass increase” value was “The native KpsC-NEc enzyme therefore appears capable of forming covalent Kdo adducts in vitro”.

The record behind these values is publication PMC10148158, “Mechanism and linkage specificities of the dual retaining β-Kdo glycosyltransferase modules of KpsC from bacterial capsule biosynthesis” (The Journal of Biological Chemistry, 2023).
